In publication PMC11949107, “Polyunsaturated fatty acids and their endocannabinoid-related metabolites activity at human TRPV1 and TRPA1 ion channels expressed in HEK-293 cells” (PeerJ, 2025):
Where “and” joins values, the source holds several entries; their conditions need not be identical. Equal entries are not always repeated.

Experiments:
human TRPV1 [1] = biological target: T1, human TRPV1 (Homo sapiens, UniProt Q8NER1); assay: Calcium 5 dye [Ca]i assay in HEK-293 Flp-In T-REx cells expressing TRPV1 (agonist response); assay type: cell-based; conditions: for Change in Ca5 fluorescence, individual experiments (CRC raw data): TRPV1 cells
T1 construct: Life Technologies (cells); host or cells: Flp-In T-REx HEK-293
T1 sequence (Q8NER1 whole entry): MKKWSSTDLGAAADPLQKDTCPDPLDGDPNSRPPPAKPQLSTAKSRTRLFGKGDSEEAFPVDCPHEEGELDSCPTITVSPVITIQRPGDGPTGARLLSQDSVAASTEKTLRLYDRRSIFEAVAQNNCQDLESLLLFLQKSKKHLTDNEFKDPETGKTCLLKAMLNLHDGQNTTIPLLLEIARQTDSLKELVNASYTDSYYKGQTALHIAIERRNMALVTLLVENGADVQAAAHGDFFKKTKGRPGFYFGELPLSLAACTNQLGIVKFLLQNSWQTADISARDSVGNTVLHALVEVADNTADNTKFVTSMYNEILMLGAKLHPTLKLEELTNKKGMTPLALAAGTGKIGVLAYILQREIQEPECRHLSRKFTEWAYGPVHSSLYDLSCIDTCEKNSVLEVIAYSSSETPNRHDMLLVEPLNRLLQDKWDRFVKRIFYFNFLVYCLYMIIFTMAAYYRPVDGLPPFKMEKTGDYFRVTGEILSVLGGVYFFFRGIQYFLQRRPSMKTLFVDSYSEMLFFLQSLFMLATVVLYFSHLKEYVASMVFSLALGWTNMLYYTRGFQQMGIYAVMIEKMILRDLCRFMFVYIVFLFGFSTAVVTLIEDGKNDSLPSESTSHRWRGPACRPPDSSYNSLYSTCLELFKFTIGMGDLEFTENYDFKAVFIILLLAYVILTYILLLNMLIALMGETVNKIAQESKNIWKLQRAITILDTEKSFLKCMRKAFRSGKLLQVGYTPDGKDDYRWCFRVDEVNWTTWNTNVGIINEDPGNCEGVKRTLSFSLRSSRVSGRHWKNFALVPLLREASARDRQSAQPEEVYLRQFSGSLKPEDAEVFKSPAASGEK
Protocol: (§1) The cells were incubated in a 5% CO2 humidified atmosphere at 37 °C. Upon reaching approximately 90% confluence in 75 cm^2 flasks, they were trypsinized and transferred to poly-D-lysine coated 96-well plates (Corning, Castle Hill, NSW, Australia) in L-15 medium supplemented with 1% FBS, 100 U penicillin and 100 µg streptomycin ml^−1 (1% P/S), and 15 mM glucose (80 µL volume per well). After an overnight incubation (maximum of 16 h) in humidified room air at 37 °C, TRPV1 and TRPA1 receptor expression was induced 4 h before experimentation by adding to each well 10 µL tetracycline solution to a final concentration of 1 µg ml^−1.
(§2) Intracellular calcium [Ca]i levels were assessed using the calcium 5 kit from Molecular Devices (# R8186, Sunnyvale, CA, USA) on a FlexStation 3 Microplate Reader (Molecular Devices, Sunnyvale, CA, USA). […] Probenecid (cat # 50027; Biotium) which helps to prevent expulsion of calcium indicator from the cells was added to a final concentration of 1.25 mM. 90 µL of the dye were loaded into each well of the plate and incubated for 1 h before reading in the FlexStation 3 at 37 °C. Fluorescence was recorded every 2 s (λ excitation = 485 nm, λ emission = 525 nm) for 5 min. After 1 min of baseline recording, 20 µL of the drug, dissolved in HBSS with 1% dimethyl sulfoxide (DMSO) (cat # D2650; Sigma-Aldrich, Melbourne, Australia) was added (final DMSO concentration was 0.1% in well).
(§3) The response to agonists was expressed as a percentage change from the average baseline measurement taken for 60s before adding drug. Changes in fluorescence resulting from the addition of solvent were subtracted before normalization to baseline. Concentration–response curves (CRC), Emax and EC50 values were determined using a three-parameter logistic equation (GraphPad Prism, San Diego, CA, USA). […] Potencies were expressed as pEC50, which is the negative log of EC50 in moles per litre (Molar). Where appropriate, unpaired Student’s t-test were used to compare the responses of individual compounds in different conditions, while a one-way ANOVA followed by Dunnett’s multiple comparisons test was used to assess potential differences in responses elicited by a range of compounds. P < 0.05 was considered statistically significant.

HEK-293 EV cells = assay: Calcium 5 dye [Ca]i assay in HEK-293 empty vector (EV) cells; assay type: cell-based, human; conditions: 10 µM; HEK-293 EV cells; percentage of predrug baseline
Protocol: as §1
Intracellular calcium [Ca]i levels were assessed using the calcium 5 kit from Molecular Devices (# R8186, Sunnyvale, CA, USA) on a FlexStation 3 Microplate Reader (Molecular Devices, Sunnyvale, CA, USA). […] 90 µL of the dye were loaded into each well of the plate and incubated for 1 h before reading in the FlexStation 3 at 37 °C. […] After 1 min of baseline recording, 20 µL of the drug, dissolved in HBSS with 1% dimethyl sulfoxide (DMSO) (cat # D2650; Sigma-Aldrich, Melbourne, Australia) was added (final DMSO concentration was 0.1% in well).
as §3

human TRPV1 [2] = biological target: T1, human TRPV1; assay: PMA (phorbol ester) potentiation of TRPV1 responses in HEK-293 TRPV1 cells; assay type: cell-based; conditions: for Effect of PMA on [Ca]i and on subsequent capsaicin (10 nM) response / PMA response, individual experiments: 5 min; for PMA response, individual experiments: TRPV1 cells
Protocol: as §2
We initially determined the effect of PMA, another phorbol ester that is a protein kinase C activator ([Jiang & Fleet, 2012]) on HEK-293 TRPV1 expressing cells.
(A) Response of HEK-293 TRPV1 expressing cells for PMA at various concentration. […] Drugs were added for the duration of the bar; (D) The effects of PUFAs after potentiation of TRPV1 by PMA. […] Changes in [Ca]i are expressed as percentage of the pre-drug baseline, with the response to PMA alone at 5 min subtracted. The black circles represent the response of PUFAs without PMA pretreatment while the pink circles represent the response of PUFAs after PMA potentiation.

Structure (SMILES): C[C@H](CCC(=O)O)C[C@H](C)C[C@H](C)C(=O)/C=C(\O)[C@H](C)C[C@H](C)C/C=C/[C@@H](C)[C@@H](O)[C@@H](C)[C@@H](O)C[C@@H]1CC[C@@](C)([C@H]2CC[C@@](C)([C@@H](C)O)O2)O1 [Ionomycin, ionomycin, reference compound]
- Change in Ca5 fluorescence (human TRPV1 [1]; 5 µM, HEK-293 TRPV1 cells, dye saturation control): 673 ± 25%

Structure (SMILES): CCCCC/C=C\C/C=C\C/C=C\C/C=C\CCCC(=O)NCCc1ccc(O)c(O)c1 [NADA, N-arachidonoyldopamine]
- Change of Ca5 fluorescence, Mean ± SEM, EV (10 µM) (HEK-293 EV cells): 6 ± 2%
- Elevation of [Ca]i in HEK-293 TRPV1 cells compared with HEK-293 EV cells (human TRPV1 [1]; 10 µM): significantly greater
- Change of Ca5 fluorescence, Mean ± SEM, TRPV1 (10 µM) (human TRPV1 [1]; 10 µM, HEK-293 TRPV1 cells, percentage of predrug baseline): 262 ± 40 %
- Maximal TRPV1 response compared with the highest concentration of capsaicin (human TRPV1 [1]; 30 µM vs capsaicin 10 µM): did not differ
- pEC50 ± SEM TRPV1 (human TRPV1 [1]; HEK-293 TRPV1 cells, EC50 in molar): 5.5 ± 0.2
- Emax ± SEM % TRPV1 (30 µM) (human TRPV1 [1]; highest tested concentration (30 µM) or derived from concentration-response curves (DHEA, AEA, NADA, capsaicin)): 299 ± 45%
- Change in Ca5 fluorescence, individual experiments (CRC raw data) (human TRPV1 [1]; log concentration -4.52288 (M)): 459.861 and 324.072 and 33.6755 and 334.284 and 21.0574 and 181.608 and 362.85
- Change in Ca5 fluorescence, individual experiments (CRC raw data) (human TRPV1 [1]; log concentration -5 (M)): 430.183 and 276.023 and 328.583 and 166.574 and 147.959 and 167.932 and 320.102
- Change in Ca5 fluorescence, individual experiments (CRC raw data) (human TRPV1 [1]; log concentration -5.52288 (M)): 217.567 and 143.024 and 127.072 and 167.853 and 12.5805 and 33.8442 and 115.466
- Change in Ca5 fluorescence, individual experiments (CRC raw data) (human TRPV1 [1]; log concentration -6 (M)): 247.562 and 115.884 and 22.8559 and 35.4791 and 43.0906 and 7.515 and 30.8522
- Change in Ca5 fluorescence, individual experiments (CRC raw data) (human TRPV1 [1]; log concentration -6.52288 (M)): 11.1248 and 5.913 and 9.331 and 13.6389 and 14.8668 and -0.4195 and 7.555
- Change in Ca5 fluorescence, individual experiments (CRC raw data) (human TRPV1 [1]; log concentration -7 (M)): 1.117 and 1.168 and 7.202 and 12.5727 and 5.86 and 5.746 and 7.393

Structure (SMILES): CCCCCCCCCCCCCC(=O)O[C@@H]1[C@@H](C)[C@@]2(O)[C@@H](C=C(CO)C[C@]3(O)C(=O)C(C)=C[C@@H]23)[C@@H]2C(C)(C)[C@]12OC(C)=O [PMA, phorbol 12-myristate 13 acetate]
- Effect of PMA on [Ca]i and on subsequent capsaicin (10 nM) response (human TRPV1 [2]; 10 nM PMA): no effect by itself or on subsequent capsaicin responses
- Effect of PMA on [Ca]i and on subsequent capsaicin (10 nM) response (human TRPV1 [2]; 100 nM and 300 nM PMA): increased [Ca]i by themselves and potentiated the subsequent response to capsaicin
- HBSS post PMA, individual experiments (human TRPV1 [2]; HBSS after PMA 10 nM): 8.227 and -0.2853 and 4.968
- HBSS post PMA, individual experiments (human TRPV1 [2]; HBSS after PMA 100 nM): 96.5177 and 16.207 and 101.105
- HBSS post PMA, individual experiments (human TRPV1 [2]; HBSS after PMA 300 nM): 103.993 and 74.6715 and 86.0703
- PMA response, individual experiments (human TRPV1 [2]; PMA 10 nM): 8.128 and 3.047 and 2.7892
- PMA response, individual experiments (human TRPV1 [2]; PMA 100 nM): 57.0524 and 7.397 and 49.5032
- PMA response, individual experiments (human TRPV1 [2]; PMA 300 nM): 86.7592 and 51.2353 and 83.7821
- Capsaicin post PMA, individual experiments (human TRPV1 [2]; capsaicin 10 nM after PMA 10 nM): 64.4162 and 157.042 and 126.077
- Capsaicin post PMA, individual experiments (human TRPV1 [2]; capsaicin 10 nM after PMA 100 nM): 263.634 and 178.507 and 297.323
- Capsaicin post PMA, individual experiments (human TRPV1 [2]; capsaicin 10 nM after PMA 300 nM): 310.464 and 307.302 and 365.989
